Measurements published in patent publication US20250049831A1, “ANTIVIRAL USE OF BISE[…], AND BISEPOXYLIGNAN COMPOSITION AND PREPARATION OF BISE[…]” (priority 2021, published 2025).

How the values were obtained:
[1] = system: COVID-19 virus Beta variant; type: cell-based
[2] = system: COVID-19 virus Delta variant; type: cell-based

SMILES	COVID-19 Beta virus SI [1]	COVID-19 Delta virus SI [2]
COc1cc(O)cc(C2OCC3C(c4ccc(OC5OC(CO)C(O)C(O)C5O)c(OC)c4)OCC23)c1 (centres unmarked) [compound 1]	7.64	7.14
COc1ccc([C@H]2OC[C@H]3[C@@H]2CO[C@H]3c2ccc(O[C@@H]3O[C@H](CO)[C@@H](O)[C@H](O)[C@H]3O)c(OC)c2)cc1OC [compound 2]	7.10	6.86
COc1ccc(C2OCC3C(c4ccc(OC)c(OC)c4)OCC23)cc1O (centres unmarked) [compound 3]	2.12	2.11
COc1ccc(C2OCC3C(c4ccc(OC(=O)C(C)c5ccc(CC(C)C)cc5)c(OC)c4)OCC23)cc1OC (centres unmarked) [compound 6]	3.43	1.79
